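All cell lines were grown in 96-well plates and treated with compound for 48 hours. Here, GI50 denotes the concentration required for 50% inhibition of growth.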 Activity calls are given as the source filed them. Rule as the data show it: active = GI50 up to about 1.1 µM and inactive = higher.
Assays:
Assay in all cases: NCI anticancer screen, dose series, 48 h
A498 = tested on: A498
A549 = tested on: A549
DU-145 = tested on: DU-145
HCT-15 = tested on: HCT-15
HOP-62 = tested on: HOP-62
HOP-92 = tested on: HOP-92
HT-29 = tested on: HT-29
MDA-N = tested on: MDA-N
MOLT-4 = tested on: MOLT-4
NCI-H460 = tested on: NCI-H460
OVCAR-4 = tested on: OVCAR-4
SF-295 = tested on: SF-295
SK-MEL-28 = tested on: SK-MEL-28
SK-MEL-5 = tested on: SK-MEL-5
SK-OV-3 = tested on: SK-OV-3
SN12C = tested on: SN12C
SNB-19 = tested on: SNB-19
SR = tested on: SR
TK-10 = tested on: TK-10
UACC-62 = tested on: UACC-62

Structure (SMILES): CC(C)C(/C=C/c1ccc(Cl)cc1)=N\NC(=O)N/N=C(/C=C/c1ccc(Cl)cc1)C(C)C
- GI50 (A498): 18.1 µM (inactive)
- GI50 (A549): 19 µM (inactive)
- GI50 (DU-145): > 100 µM (inactive)
- GI50 (HCT-15): 71.4 µM
- GI50 (HOP-62): 27.9 µM (inactive)
- GI50 (HOP-92): 21.7 µM (inactive)
- GI50 (HT-29): 42.3 µM (inactive)
- GI50 (MDA-N): 36.6 µM (inactive)
- GI50 (MOLT-4): 48.8 µM (inactive)
- GI50 (NCI-H460): 23 µM (inactive)
- GI50 (OVCAR-4): 19.6 µM (inactive)
- GI50 (SF-295): 22.9 µM (inactive)
- GI50 (SK-MEL-28): 50.9 µM (inactive)
- GI50 (SK-MEL-5): 64.6 µM (inactive)
- GI50 (SK-OV-3): 32.4 µM (inactive)
- GI50 (SN12C): 18.4 µM (inactive)
- GI50 (SNB-19): 19.8 µM (inactive)
- GI50 (SR): 30.8 µM (inactive)
- GI50 (TK-10): 25.3 µM (inactive)
- GI50 (UACC-62): 35.5 µM (inactive)

Source: ChEMBL document CHEMBL1201862, “PubChem BioAssay data set” (2004)
